Assay results: ChEMBL document CHEMBL5385930, “Synthesis, Structure-Activity Relationship Study, Bioactivity, and Nephrotoxicity Evaluation of the Proposed Structure of the Cyclic Lipodepsipeptide Brevicidine B” (J Nat Prod, 2024)
In brackets after ≈: the same amount, converted by molar mass. Positions of bridges follow the written chain, without caps; N, C: chain ends. Non-standard residues stand in square brackets, D forms with d. Residues, ends and D or L forms follow the SMILES beside them. ξ: configuration not given here. *: point of attachment. Hexanoyl(4ξ-Me) = CCC(C)CCC(=O)*; dOrn = NCCC[C@@H](N)C(=O)O; Orn = NCCC[C@H](N)C(=O)O

Legend:
[1] = Nephrotoxicity in human Kidney organoid assessed as deterioration of renal tubule measured after 48 hrs by bright field imaging analysis; assay type: toxicity, tissue-based; details: dose 100-1000 µM
[2] = Nephrotoxicity in human Kidney organoid assessed as at 300 uM measured after 48 hrs by bright field imaging analysis; assay type: toxicity, tissue-based
[3] = system: Staphylococcus aureus; experiment: Antibacterial activity against Staphylococcus aureus ATCC 25923 assessed as reduction in bacterial growth by microbroth dilution assay; assay type: functional
[4] = system: Klebsiella pneumoniae; experiment: Antibacterial activity against Klebsiella pneumoniae ATCC 33495 assessed as reduction in bacterial growth by microbroth dilution assay; assay type: functional
[5] = system: Escherichia coli; experiment: Antibacterial activity against multidrug resistant Escherichia coli MS834 harbouring mcr-1 assessed as reduction in bacterial growth by microbroth dilution assay; assay type: functional
[6] = system: Escherichia coli; experiment: Antibacterial activity against Escherichia coli ATCC 25922 assessed as reduction in bacterial growth by microbroth dilution assay; assay type: functional
[7] = system: Acinetobacter baumannii; experiment: Antibacterial activity against Acinetobacter baumannii ATCC 19606 assessed as reduction in bacterial growth by microbroth dilution assay; assay type: functional
[8] = system: Staphylococcus aureus; experiment: Antibacterial activity against methicillin-resistant Staphylococcus aureus […] assessed as reduction in bacterial growth by microbroth dilution assay; assay type: functional
[9] = system: Klebsiella pneumoniae; experiment: Antibacterial activity against Klebsiella pneumoniae ATCC 700603 assessed as reduction in bacterial growth by microbroth dilution assay; assay type: functional
[10] = system: Klebsiella pneumoniae; experiment: Antibacterial activity against pandrug-resistant Klebsiella pneumoniae MS6671 assessed as reduction in bacterial growth by microbroth dilution assay; assay type: functional
[11] = system: Acinetobacter baumannii; experiment: Antibacterial activity against multidrug resistant Acinetobacter baumannii AB5075 assessed as reduction in bacterial growth by microbroth dilution assay; assay type: functional
[12] = system: Pseudomonas aeruginosa; experiment: Antibacterial activity against Pseudomonas aeruginosa ATCC 27853 assessed as reduction in bacterial growth by microbroth dilution assay; assay type: functional
[13] = system: Enterococcus faecalis; experiment: Antibacterial activity against vancomycin resistant Enterococcus faecalis V583 assessed as reduction in bacterial growth by microbroth dilution assay; assay type: functional
[14] = system: Staphylococcus aureus; experiment: Antibacterial activity against methicillin-resistant Staphylococcus aureus EMRSA-15 assessed as reduction in bacterial growth by microbroth dilution assay; assay type: functional
[15] = system: Staphylococcus aureus; experiment: Antibacterial activity against methicillin-resistant Staphylococcus aureus RA120 assessed as reduction in bacterial growth by microbroth dilution assay; assay type: functional
[16] = system: Staphylococcus aureus; experiment: Antibacterial activity against methicillin-resistant Staphylococcus aureus NCTC1044 assessed as reduction in bacterial growth by microbroth dilution assay; assay type: functional
[17] = Nephrotoxicity in human Kidney organoid assessed as at 100 uM measured after 48 hrs by bright field imaging analysis; assay type: toxicity, tissue-based

Compound	Activity [1]	Activity [2]	MIC [3] [µg/mL]	MIC [4] [µg/mL]	MIC [5] [µg/mL]	MIC [6] [µg/mL]	MIC [7] [µg/mL]	MIC [8] [µg/mL]	MIC [9] [µg/mL]	MIC [10] [µg/mL]	MIC [11] [µg/mL]	MIC [12] [µg/mL]	MIC [13] [µg/mL]	MIC [14] [µg/mL]	MIC [15] [µg/mL]	MIC [16] [µg/mL]	Activity [17]
POLYMYXIN B [listing 1 of 2 here]	Dose-Dependent Effect	Toxic															
CCC(C)CCC(=O)N[C@H](CC(N)=O)C(=O)N[C@H](Cc1c[nH]c2ccccc12)C(=O)N[C@H](Cc1c[nH]c2ccccc12)C(=O)N[C@H](CCCN)C(=O)N[C@@H](CCCN)C(=O)NCC(=O)N[C@H](CCCN)C(=O)N[C@@H](Cc1c[nH]c2ccccc12)C(=O)N[C@@H]1C(=O)N[C@@H]([C@@H](C)CC)C(=O)NCC(=O)N[C@@H](CO)C(=O)O[C@@H]1C (some centres not stated) ({Hexanoyl(4ξ-Me)}-[dN][dW][dW][dOrn][Orn]G[dOrn]WTIGS; ester 9-C)			> 32	16 (≈ 10.4 µM)	32 (≈ 20.7 µM)	32 (≈ 20.7 µM)	> 32	> 32	32 (≈ 20.7 µM)	> 32	32 (≈ 20.7 µM)	32 (≈ 20.7 µM)	> 32				
POLYMYXIN B [listing 2 of 2 here]				0.5	4	0.125	0.5		0.25	32	0.5	1					
CCC(C)CCC(=O)N[C@H](CC(N)=O)C(=O)N[C@H](CCCCN)C(=O)N[C@H](Cc1c[nH]c2ccccc12)C(=O)N[C@H](CCCN)C(=O)N[C@@H](CCCN)C(=O)NCC(=O)N[C@H](CCCN)C(=O)N[C@@H](Cc1c[nH]c2ccccc12)C(=O)N[C@@H]1C(=O)N[C@@H]([C@@H](C)CC)C(=O)NCC(=O)N[C@@H](CO)C(=O)O[C@@H]1C (some centres not stated)			> 32	> 32	> 32	> 32	> 32	> 32	> 32	> 32	> 32	16 (≈ 10.8 µM)	> 32				
CCC(C)CCC(=O)N[C@H](CC(N)=O)C(=O)N[C@@H](Cc1ccc(Br)cc1)C(=O)N[C@H](Cc1c[nH]c2ccccc12)C(=O)N[C@H](CCCN)C(=O)N[C@@H](CCCN)C(=O)NCC(=O)N[C@H](CCCN)C(=O)N[C@@H](Cc1c[nH]c2ccccc12)C(=O)N[C@@H]1C(=O)N[C@@H]([C@@H](C)CC)C(=O)NCC(=O)N[C@@H](CO)C(=O)O[C@@H]1C (some centres not stated)			> 32	> 32	> 32	32 (≈ 20.2 µM)	> 32	> 32	> 32	> 32	> 32	> 32	> 32				
CCC(C)CCC(=O)N[C@H](CC(N)=O)C(=O)N[C@H](C(=O)N[C@H](Cc1c[nH]c2ccccc12)C(=O)N[C@H](CCCN)C(=O)N[C@@H](CCCN)C(=O)NCC(=O)N[C@H](CCCN)C(=O)N[C@@H](Cc1c[nH]c2ccccc12)C(=O)N[C@@H]1C(=O)N[C@@H]([C@@H](C)CC)C(=O)NCC(=O)N[C@@H](CO)C(=O)O[C@@H]1C)C(c1ccccc1)c1ccccc1 (some centres not stated)			> 32	32 (≈ 20.3 µM)	16 (≈ 10.1 µM)	32 (≈ 20.3 µM)	32 (≈ 20.3 µM)	> 32	> 32	> 32	32 (≈ 20.3 µM)	> 32	> 32				
CC1(C)S[C@@H]2[C@H](NC(=O)[C@H](N)c3ccc(O)cc3)C(=O)N2[C@H]1C(=O)O [AMOXICILLIN]			0.25 (≈ 0.684 µM)					> 32					0.5 (≈ 1.37 µM)	> 32	> 32	32 (≈ 87.6 µM)	
CCC(C)CCC(=O)N[C@H](CC(N)=O)C(=O)N[C@@H](Cc1ccccc1)C(=O)N[C@H](Cc1c[nH]c2ccccc12)C(=O)N[C@H](CCCN)C(=O)N[C@@H](CCCN)C(=O)NCC(=O)N[C@H](CCCN)C(=O)N[C@@H](Cc1c[nH]c2ccccc12)C(=O)N[C@@H]1C(=O)N[C@@H]([C@@H](C)CC)C(=O)NCC(=O)N[C@@H](CO)C(=O)O[C@@H]1C (some centres not stated)			> 32	> 32	> 32	> 32	> 32	> 32	> 32	> 32	> 32	> 32	> 32				
CN[C@H](CC(C)C)C(=O)N[C@H]1C(=O)N[C@@H](CC(N)=O)C(=O)N[C@H]2C(=O)N[C@H]3C(=O)N[C@H](C(=O)N[C@H](C(=O)O)c4cc(O)cc(O)c4-c4cc3ccc4O)[C@H](O)c3ccc(c(Cl)c3)Oc3cc2cc(c3O[C@@H]2O[C@H](CO)[C@@H](O)[C@H](O)[C@H]2O[C@H]2C[C@](C)(N)[C@H](O)[C@H](C)O2)Oc2ccc(cc2Cl)[C@H]1O [VANCOMYCIN]													32 (≈ 22.1 µM)				
COLISTIN				0.25	4	0.125	0.5		0.25	32	1	1					
CCC(C)CCC(=O)N[C@H](CC(N)=O)C(=O)N[C@H](Cc1c[nH]cn1)C(=O)N[C@H](Cc1c[nH]c2ccccc12)C(=O)N[C@H](CCCN)C(=O)N[C@@H](CCCN)C(=O)NCC(=O)N[C@H](CCCN)C(=O)N[C@@H](Cc1c[nH]c2ccccc12)C(=O)N[C@@H]1C(=O)N[C@@H]([C@@H](C)CC)C(=O)NCC(=O)N[C@@H](CO)C(=O)O[C@@H]1C (some centres not stated)			> 32	> 32	> 32	> 32	> 32	> 32	> 32	> 32	> 32	> 32	> 32				
C[C@@H](O)[C@H]1C(=O)N2C(C(=O)O)=C(S[C@@H]3CN[C@H](C(=O)N(C)C)C3)[C@H](C)[C@H]12 [MEROPENEM]				0.062 (≈ 0.162 µM)	0.062 (≈ 0.162 µM)	0.031 (≈ 0.0808 µM)	0.5 (≈ 1.3 µM)		0.062 (≈ 0.162 µM)	32 (≈ 83.4 µM)	32 (≈ 83.4 µM)	0.25 (≈ 0.652 µM)					
Cc1onc(-c2ccccc2)c1C(=O)N[C@@H]1C(=O)N2[C@@H]1SC(C)(C)[C@@H]2C(=O)O [OXACILLIN]								128 (≈ 319 µM)						64 (≈ 159 µM)	64 (≈ 159 µM)	64 (≈ 159 µM)	
CCC(C)CCC(=O)N[C@H](CC(N)=O)C(=O)N[C@H](Cc1ccc(O)cc1)C(=O)N[C@H](Cc1c[nH]c2ccccc12)C(=O)N[C@H](CCCN)C(=O)N[C@@H](CCCN)C(=O)NCC(=O)N[C@H](CCCN)C(=O)N[C@@H](Cc1c[nH]c2ccccc12)C(=O)N[C@@H]1C(=O)N[C@@H]([C@@H](C)CC)C(=O)NCC(=O)N[C@@H](CO)C(=O)O[C@@H]1C (some centres not stated) ({Hexanoyl(4ξ-Me)}-[dN][dY][dW][dOrn][Orn]G[dOrn]WTIGS; ester 9-C)	Dose-Dependent Effect	Toxic	> 32	2 (≈ 1.32 µM)	4 (≈ 2.63 µM)	4 (≈ 2.63 µM)	16 (≈ 10.5 µM)	> 32	8 (≈ 5.26 µM)	16 (≈ 10.5 µM)	16 (≈ 10.5 µM)	4 (≈ 2.63 µM)	> 32				Non-Toxic
